Reference: patent US6593335B1, “Potassium channel openers” (Abbott Laboratories, priority 1997, dated 2003)

Target: potassium channels (Sus scrofa, UniProt F1SR11)
Assay: Functional potassium channel opening activity in isolated Landrace pig bladder strips (field-stimulated twitch)
Conditions: for Landrace Pig Bladder Index: ED50 for P1075 divided by ED50 for the test agonist, averaged over tissues; for Landrace Pig Bladder pD2: negative logarithm of ED50; for Emax: pig; for Emax / Landrace Pig Bladder Efficacy (% P1075): maximal efficacy relative to P1075, field stimulation 0.05Hz, 0.5 milli-seconds at 20 volts
Method: The entire bladder was removed and ed into Krebs Ringer bicarbonate solution (composition, mM: NaCl,; dextrose, 1; KCl, 4.7; […] Propranolol (0.004 ed in all of the assays to block […]. The trigonal and dome […]. Strips 3-5 mm wide and 20 mm long were prepared from the cut in a circular fashion. The mucosal layer was removed. One end ationary glass rod and the other to a Grass FT03 transducer at a basal am. Two parallel platinum electrodes were included in the stationary ide field stimulation of 0.05Hz, 0.5 milli-seconds at 20 volts. […] Tissues were allowed to equilibrate for at least 60 minutes and primed with 80 mM KCl. A control concentration response curve (cumulative) was generated for each tissue using the potassium channel opener […] as the control agonist. […] After a 60 minute rinsing period, a concentration response curve (cumulative) was generated for the test agonist in the same fashion as that used for the control agonist […]. The maximal efficacy of each compound (expressed as % relative to […]) is reported. […] J. Physiol. 235, E97 (1980)), and agonist potencies were expressed as pD2 (the negative logarithm). Agonist potencies were also expressed as an index relative to […]. The index was calculated by dividing the ED50 for […] by the ED50 for the test agonist in a given tissue. Each tissue was used for only one test agonist, and the indices obtained from each tissue were averaged to provide an average index of potency.

| Landrace Pig Bladder Index | Landrace Pig Bladder pD2 | Emax [%] | Landrace Pig Bladder Efficacy (% P1075) | SMILES |
| --- | --- | --- | --- | --- |
| 0.026 | 5.4 | 98 |  | Cc1ccc(C2C3=C(CCCC3=O)NC3=C2S(=O)(=O)CC3)cc1C#N (single isomer, unassigned) [Example 155, 9-(3-cvano-4-methylphenyl)-2,3 5,6,7,9-hexahydrothieno[3,2-b]guinolin-8(4H)-one, 1,1-dioxide] |
| 0.17 | 6.4 |  | 100 | O=C1CCCC2=C1C(c1ccc(Cl)c([N+](=O)[O-])c1)C1=C(CCS1(=O)=O)N2 (single isomer, unassigned; (-)) [Example 100, (−)-9-(4-chloro-3-nitrophenyl)-2,3,5,6,7,9-hexahydrothieno[3,2-b]quinolin-8(4H)-one, 1,1-dioxide] |
| 0.036 | 5.5 | 71 |  | O=C1CCCC2=C1C(c1cc(Br)cs1)C1=C(CCS1(=O)=O)N2 (single isomer, unassigned) [Example 180, 9-(4-bromo-2-thienyl)-2,3 5,6,7,9-hexahydrothieno[3 2-b]quinolin-8(4H)-one 1,1-dioxide] |
| 0.0071 | 5.0 | 94 |  | N#Cc1cccc(C2C3=C(CCC3=O)NC3=C2S(=O)(=O)CC3)c1 (single isomer, unassigned; (+)) [Example 164] |
| 0.12 | 6.2 | 100 |  | O=C1CCCC2=C1C(c1ccc(Cl)c(C(F)(F)F)c1)C1=C(CCS1(=O)=O)N2 (single isomer, unassigned; (-)) [Example 172, (−)-9-[4-chloro-3-(trifluoromethyl)vhenyl]-2,3,5,6,79-hexahydrothieno[3,2-b]quinolin-8(4H)-one, 1,1-dioxide] |
| 0.53 | 6.6 | 97 |  | O=C1CCC2=C1C(c1ccc(Br)c(Br)c1)C1=C(CCS1(=O)=O)N2 (stereo not drawn) [Example 72] |
| 0.026 | 5.3 | 94 |  | O=C1CCC2=C1C(c1cccc([N+](=O)[O-])c1)C1=C(CCS1(=O)=O)N2 (stereo not drawn) [Example 58, 2,3,4,5,6,8-hexahydro-8-(3-nitrophenyl)-7H-cyclopenta[b]thieno [2.3-e]pyridin-7-one, 1,1-dioxide] |
| 0.18 | 6.2 | 100 |  | O=C1CCCC2=C1C(c1ccc(Cl)c([N+](=O)[O-])c1)C1=C(CCS1(=O)=O)N2 (single isomer, unassigned; (+)) [Example 99, (+)-9-(4-chloro-3-nitrophenyl)-2,3,5,6,7,9-hexahydrothieno[3.2-b]guinolin-8(4H)-one, 1,1-dioxide] |
| 0.24 | 6.2 | 99 |  | O=C1CCCC2=C1C(c1ccc(Br)c(Br)c1)C1=C(CCS1(=O)=O)N2 (single isomer, unassigned) [Example 147, 9-(3.4-dibromophenyl)-2,3,5,6,7,,9-hexahydrothieno[3.2-b]quinolin-8(4H)-one, 1,1-dioxide] |
| 0.032 | 5.7 | 99 |  | O=S1(=O)CCC2=C1C(c1ccc(F)c(Br)c1)C=C(C(F)(F)F)N2 (stereo not drawn) [Example 112, 7-(3-bromo-4-fluorophenyl)-5-(trifluoromethyl)-2,3,4,7-tetrahydrothieno [3,2-b]pyridine. 1,1-dioxide] |
| 0.13 | 6.0 | 100 |  | O=C1CCCC2=C1C(c1ccc(F)c(C(F)(F)F)c1)C1=C(CCS1(=O)=O)N2 (single isomer, unassigned; (-)) [Example 139] |
| 0.37 | 6.5 |  | 97 | O=C1CCCC2=C1C(c1ccc(Cl)c(Cl)c1)C1=C(CCS1(=O)=O)N2 (single isomer, unassigned; (-)) [Example 96, (−)-9-(3,4-dichlorophenyl)-2,3,5,6,7,9-hexahydrothieno[3,2-b]guinolin-8(4H)-one, 1,1-dioxide] |
| 0.075 | 4.7 | 98 |  | O=C1CCCC2=C1C(c1cc(Br)ccc1O)C1=C(CCS1(=O)=O)N2 (stereo not drawn) [Example 108, 9-(5-bromo-2-hydroxyphenyl)-2,3,5,6,7,9-hexahydrothieno[3,2-b]quinolin-8(4H)-one 1,1-dioxide] |
| 0.038 | 5.4 | 88 |  | CC1=C(S(C)(=O)=O)C(c2ccc(F)c(Br)c2)C2=C(CCCC2=O)N1 (stereo not drawn) [Example 25, 4-(3-bromo-4-fluorophenyl)-4,6,7,8-tetrahydro-2-methyl-3-(methylsulfonyl)-5(1H)-guinolinone] |
| 0.069 | 6.5 | 100 |  | O=C1CCC2=C1C(c1ccc(F)c(Br)c1)C1=C(CCS1(=O)=O)N2 (single isomer, unassigned; (-)) [Example 86] |
| 0.0099 | 4.5 | 78 |  | CC1=C(S(C)(=O)=O)C(c2cccc([N+](=O)[O-])c2)C2=C(CCCC2=O)N1 (stereo not drawn) [Example 26, 4,6,7,8-tetrahydro-2-methyl-3-(methylsulfonyl)-4-(3-nitrophenyl)-5(1H)-quinolinone] |
| 0.0034 | 4.6 | 95 |  | O=C1CCC2=C1C(c1ccc(F)c(Br)c1)C1=C(CCCS1(=O)=O)N2 (single isomer, unassigned; (+)) [Example 91] |
| 0.035 | 5.8 | 94 |  | O=C1CCCC2=C1C(c1ccc(F)c(-c3ccco3)c1)C1=C(CCS1(=O)=O)N2 (single isomer, unassigned) [Example 165, 9-[4-fluoro-3-(2-fMrIl)phenyl]-2,3,5,6,7,9-hexahydrothieno[3,2-b]quinolin-8(4H)-one, 1,1-dioxide] |
| 0.18 | 6.2 | 93 |  | O=C1CCCC2=C1C(c1ccc(F)c(Br)c1)C1=C(CCCS1(=O)=O)N2 (stereo not drawn) [Example 4, 10-(3-bromo-4-fluorophenyl)-3,4,6,7,8,10-hexahydro-2H-thiopyrano [3,2-b]quinolin-9(5H)-one, 1,1-dioxide] |
| 0.57 | 7.0 | 100 |  | O=C1CCCC2=C1[C@@H](c1ccc(F)c(Br)c1)C1=C(CCS1(=O)=O)N2 [Example 83, (+)-(9R)-9-(3-bromo-4-fluorophenyl)-2,3,5,6,7,9-hexahydrothieno [3.2-b]guinolin-8(4H)-one, 1,1-dioxide] |
| 0.15 | 6.2 | 96 |  | O=C1CCCC2=C1C(c1ccc(Cl)c(Cl)c1)C1=C(CCCS1(=O)=O)N2 (stereo not drawn) [Example 2] |
| 0.23 | 6.3 | 96 |  | O=C1CCC2=C1C(c1ccc(Cl)c([N+](=O)[O-])c1)C1=C(CCS1(=O)=O)N2 (single isomer, unassigned) [Example 161] |
| 0.46 | 6.9 | 98 |  | O=C1CCC2=C1C(c1ccc(F)c(Br)c1)C1=C(CCCS1(=O)=O)N2 (stereo not drawn) [Example 40, 9-(3-bromo-4-fluorophenyl)-3,4,5,6,7,9-hexahydrocyclopenta[b]thiopyrano [2.3-e]pyridin-8(2H)-one, 1,1-dioxide] |
| 0.69 | 6.8 | 100 |  | O=C1CCCC2=C1[C@H](c1ccc(F)c(Br)c1)C1=C(CCS1(=O)=O)N2 [Example 84, (−)-(9S)-9-(3-bromo-4-fluorophenyl)-2,3,5,6,7,9-hexahydrothieno [3,2-b]quinolin-8(4H)-one, 1,1-dioxide] |
| 0.11 | 6.0 | 85 |  | O=C1CCCC2=C1C(c1ccc(F)c(Cl)c1)C1=C(CCCS1(=O)=O)N2 (stereo not drawn) [Example 3, 10-(3-chloro-4-fluorophenyl)-3,4,6,7,8,10-hexahydro-2H-thiopyrano [3,2-b]quinolin-9(5H)-one, 1,1-dioxide] |
| 0.057 | 5.6 |  | 100 | O=C1CCCC2=C1C(c1ccc3nonc3c1)C1=C(CCS1(=O)=O)N2 (single isomer, unassigned; (-)) [Example 98, (−)-9-(2.1 .3-benzoxadiazol-5-yl)-2,3.5,6.7,9-hexahydrothieno[3.2-b]guinolin-8(4H)-one, 1,1-dioxide] |
| 0.17 | 6.7 |  | 100 | O=C1CCCC2=C1C(c1ccc(F)c(Cl)c1)C1=C(CCS1(=O)=O)N2 (single isomer, unassigned; (-)) [Example 110, (−)-9-(3-chloro-4-fluorophenyl)-2,3,5,6,7,9-hexahydrothieno[3.2-b]quinolin-8(4H)-one, 1,1-dioxide] |
